Results: paper PMC6747525, “Chk1 Inhibitor MK-8776 Restores the Sensitivity of Chemotherapeutics in P-glycoprotein Overexpressing Cancer Cells” (International Journal of Molecular Sciences, 2019)

Experiments:
[1] = molecular target: T1, P-glycoprotein (P-gp) (Homo sapiens, UniProt P08183)
T1 construct: gene ABCB1

[2] = molecular target: T1, P-glycoprotein (P-gp); assay: biochemical

T1 sequence (P08183 whole entry): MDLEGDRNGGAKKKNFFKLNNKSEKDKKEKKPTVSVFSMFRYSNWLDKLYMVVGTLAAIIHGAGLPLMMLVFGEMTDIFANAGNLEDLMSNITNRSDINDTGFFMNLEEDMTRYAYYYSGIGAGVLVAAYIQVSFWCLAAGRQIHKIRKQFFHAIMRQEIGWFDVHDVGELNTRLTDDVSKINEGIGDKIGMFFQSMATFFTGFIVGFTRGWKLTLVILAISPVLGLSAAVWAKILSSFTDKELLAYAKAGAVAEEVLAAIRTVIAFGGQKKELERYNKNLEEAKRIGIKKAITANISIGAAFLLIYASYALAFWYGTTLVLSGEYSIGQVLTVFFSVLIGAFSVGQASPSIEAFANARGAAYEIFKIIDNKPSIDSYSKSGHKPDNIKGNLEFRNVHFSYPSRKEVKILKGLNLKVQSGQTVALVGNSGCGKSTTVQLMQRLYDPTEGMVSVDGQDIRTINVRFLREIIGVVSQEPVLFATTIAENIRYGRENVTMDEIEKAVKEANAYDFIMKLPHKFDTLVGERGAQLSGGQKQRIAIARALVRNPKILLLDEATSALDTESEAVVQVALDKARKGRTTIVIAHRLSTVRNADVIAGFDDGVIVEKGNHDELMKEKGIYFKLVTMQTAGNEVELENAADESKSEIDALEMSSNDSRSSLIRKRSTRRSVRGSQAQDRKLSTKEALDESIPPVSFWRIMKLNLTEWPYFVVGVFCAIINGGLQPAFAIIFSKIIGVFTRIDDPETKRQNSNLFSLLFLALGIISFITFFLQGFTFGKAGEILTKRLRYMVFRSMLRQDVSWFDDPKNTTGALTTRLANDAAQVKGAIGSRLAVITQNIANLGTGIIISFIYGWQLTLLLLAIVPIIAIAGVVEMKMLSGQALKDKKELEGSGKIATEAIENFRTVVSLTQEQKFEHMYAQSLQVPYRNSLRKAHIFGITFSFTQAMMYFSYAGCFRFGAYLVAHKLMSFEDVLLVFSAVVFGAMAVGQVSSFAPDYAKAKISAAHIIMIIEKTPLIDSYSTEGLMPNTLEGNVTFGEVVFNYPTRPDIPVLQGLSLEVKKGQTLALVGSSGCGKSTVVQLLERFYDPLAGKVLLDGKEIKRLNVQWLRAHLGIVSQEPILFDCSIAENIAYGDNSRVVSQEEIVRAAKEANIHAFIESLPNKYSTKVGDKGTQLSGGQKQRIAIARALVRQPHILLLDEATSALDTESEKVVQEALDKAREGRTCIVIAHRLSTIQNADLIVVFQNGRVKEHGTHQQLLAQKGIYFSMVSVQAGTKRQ

Row | EC50 [2] | SMILES | [3H]-paclitaxel accumulation and efflux in P-gp-overexpressing KB-C2 versus pare [1]
1 |  | CC(=O)O[C@H]1C(=O)[C@@]2(C)[C@H]([C@H](OC(=O)c3ccccc3)[C@]3(O)C[C@H](OC(=O)[C@H](O)[C@@H](NC(=O)c4ccccc4)c4ccccc4)C(C)=C1C3(C)C)[C@]1(OC(C)=O)CO[C@@H]1C[C@@H]2O [paclitaxel] | [^3H]-paclitaxel efflux increased significantly compared with that in their parental KB-3-1 cells
2 | 3.8 µM | Cn1cc(-c2cnn3c(N)c(Br)c([C@@H]4CCCNC4)nc23)cn1 [MK-8776] | 
